From paper PMC7155212 (Journal of Enzyme Inhibition and Medicinal Chemistry, 2020) come the findings set out here.

In one assay the target is BChE from equine serum (Equus caballus, UniProt P81908). Description: biochemical. It counts as biochemical. As for the experimental part:
(§1) The anticholinesterase activity of the 3-arylbenzofuranone compounds was determined by the method of Ellman et al.[16] with slight modifications. […] Acetylthiocholine iodide and butyrylthiocholine iodide were used as substrates respectively. 5,5′-Dithiobis(2-nitrobenzoic acid) (DTNB) was used as the chromophoric reagent. To a 96-well plate, 120 µL of phosphate buffer solution (0.1 M, pH = 8.0, PBS), 20 µL of DTNB (3.3 mM in 0.1 M PBS, pH = 8.0) were added sequentially, 20 µL AChE solution (0.2 U/mL in 0.1 M PBS, pH = 8.0), 20 µL of different concentrations of the sample solution, shaken well, and incubated at 37 °C for 5 min. Then, 20 µL of substrate (5 mM in 0.1 M PBS, pH = 8.0) were added, shaken well, and incubated at 37 °C for 20 min. […] BChE inhibitory activity was assessed similarly using butyrylthiocholine iodide as the substrate. The sample solution was set to five concentration gradients and the experiment was repeated three times. […] Cholinesterase inhibitory effect (%)=[A0−(A1−A2)]/A0×100% where A0 is the absorbance of blank group; A1 is the absorbance of sample group; A2 is the absorbance of sample blank group.

The next assay has as its target AChE from electric eel (Electrophorus electricus, UniProt O42275). The assay can be described thus: biochemical. It is filed as biochemical. The following applies: Ellman method, mean ± SD (n = 3). On the procedure: as §1
(In general: Ellman's reagent forms a yellow product with free thiols.)

The target in the next assay is T1, MAO-B (Rattus norvegicus, UniProt P19643).
T1 construct: The crude enzyme was extracted from the liver of 200–250 g of Wistar rats; from tissue; host or cells: liver of Wistar rats (crude enzyme)
T1 sequence (P19643 1-520): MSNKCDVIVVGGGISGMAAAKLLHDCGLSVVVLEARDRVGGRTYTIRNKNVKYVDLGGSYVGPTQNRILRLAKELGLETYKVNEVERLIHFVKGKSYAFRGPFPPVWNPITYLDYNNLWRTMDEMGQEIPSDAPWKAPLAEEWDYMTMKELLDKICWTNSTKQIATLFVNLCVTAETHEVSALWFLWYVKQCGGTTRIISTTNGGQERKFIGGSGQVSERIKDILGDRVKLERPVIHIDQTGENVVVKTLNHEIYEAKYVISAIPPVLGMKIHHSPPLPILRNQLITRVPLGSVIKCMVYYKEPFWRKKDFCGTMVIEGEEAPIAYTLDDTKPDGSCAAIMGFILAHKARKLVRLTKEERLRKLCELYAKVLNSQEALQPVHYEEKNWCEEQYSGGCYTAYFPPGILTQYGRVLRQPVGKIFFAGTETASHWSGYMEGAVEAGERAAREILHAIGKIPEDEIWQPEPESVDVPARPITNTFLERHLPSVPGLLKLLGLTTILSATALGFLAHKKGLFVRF
Description: In vitro MAO inhibitory activity (Holt method, crude enzyme from rat liver). It is filed as biochemical, Wistar rat. On the procedure:
The MAO inhibitory activity of the 3-arylbenzofuranone compounds was determined by the method of Holt et al.[17] with slight modifications. The crude enzyme was extracted from the liver of 200–250 g of Wistar rats according to literature methods[18]^,[19]. The crude enzyme protein content was determined by the Bradford method using a Bradford Protein Assay Kit (Beyotime). The assay was performed in 0.2 M potassium phosphate buffer pH 7.6 on 96-well plates in 240 μl total volume. The chromogenic solution containing 1 mM vanillic acid, 0.5 mM 4-aminoantipyrine, and 4 U/ml horseradish peroxidase in 0.2 M potassium phosphate buffer pH 7.6 was mixed anew for each measurement. 40 μL of enzyme solution and 40 μL of sample solution were added to a 96-well plate. The solution was then incubated at 37 °C for 20 min. 120 μL of the 4-(trifluoromethyl) benzylamine solution and 40 μL of the chromogenic solution were added subsequently and incubated at 37 °C for 90 min. The absorbance was measured at 490 nm using a microplate reader, and the inhibition rate of MAO and the IC50 value of each sample were calculated according to the formula. The control group replaced the sample solution with PBS (0.2 M, pH = 7.6), the positive control replaced the sample with the positive drug, and the blank group replaced the substrate with PBS, and each group was measured three times in parallel to average. Monoamine oxidase inhibitory effect (%) = [(AC – AB) – (AS – ASB )]/(AC – AB)×100% where AC is the absorbance of control group; AB is the absorbance of blank group; AS is the absorbance of sample group; ASB is the absorbance of sample blank group.

Assay [1] in a line: In vitro antioxidant activity (DPPH radical scavenging). The following applies: DPPH free radical scavenging, 30 min at 37 °C, mean ± SD (n = 3). As for the experimental part:
The assay provides an assessment of the antioxidant activity due to free radical scavenging by measuring hydrogen atom (or one electron) donating activity. DPPH is a purple stable free radical that is reduced to a yellow-coloured diphenylpicryl hydrazine by an antioxidant. The spectrophotometric assay was carried out as described by the literature method with a slight modification. 100 μL of a sample solution was added to 100 μL of DPPH solution. Following 30 min of incubation at 37 °C and protection from light, the absorbance at 517 nm was determined using a microplate reader. Each group was measured three times in parallel to average. IC50 values were calculated. The percentage of DPPH radical scavenging rate of the target compound is calculated as follows: DPPH free radical scavenging effect (%)=[A0 – (A1−A2)]/A0×100% where A0 is the absorbance of blank group; A1 is the absorbance of sample group; A2 is the absorbance of sample blank group.
A general note: DPPH is a stable violet radical that fades when it is reduced.

The mark [2] stands for this setting: IC50 value AChE inhibitory activity.
Setting [3] is: equine serum BChE, Ellman method, mean ± SD (n = 3), read-out: IC50 value BuChE inhibitory activity.
Where [4] appears, read: read-out: IC50 value AChE inhibitory activity.
[5] abbreviates: rat liver crude enzyme, 4-(trifluoromethyl)benzylamine substrate, mean ± SD (n = 3), read-out: IC50 value MAO-B inhibitory activity.

SMILES strings stand for the structures. “And” between values parts separate entries of the source, which are not always exact repeats. Identical values can stand only once. Like-named read-outs stand apart in the source and are kept apart here.

Sequence of AChE from electric eel (O42275 24-633): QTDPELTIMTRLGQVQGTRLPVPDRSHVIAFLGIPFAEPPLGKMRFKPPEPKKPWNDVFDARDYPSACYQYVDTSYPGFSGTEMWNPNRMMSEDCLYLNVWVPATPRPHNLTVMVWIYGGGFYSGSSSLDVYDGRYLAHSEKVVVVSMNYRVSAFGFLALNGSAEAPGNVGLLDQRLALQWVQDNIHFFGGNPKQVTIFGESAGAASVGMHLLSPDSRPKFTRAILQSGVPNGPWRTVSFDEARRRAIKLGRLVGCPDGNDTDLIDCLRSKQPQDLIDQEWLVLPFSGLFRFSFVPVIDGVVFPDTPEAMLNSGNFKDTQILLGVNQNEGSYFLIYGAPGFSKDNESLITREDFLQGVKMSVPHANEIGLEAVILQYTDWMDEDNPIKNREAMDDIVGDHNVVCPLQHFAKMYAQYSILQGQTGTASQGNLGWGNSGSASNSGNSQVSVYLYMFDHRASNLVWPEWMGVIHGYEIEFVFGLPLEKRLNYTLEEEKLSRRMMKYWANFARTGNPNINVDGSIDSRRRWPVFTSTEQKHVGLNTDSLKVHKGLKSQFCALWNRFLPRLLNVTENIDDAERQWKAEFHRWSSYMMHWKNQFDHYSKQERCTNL
Sequence of BChE from equine serum (P81908 whole entry): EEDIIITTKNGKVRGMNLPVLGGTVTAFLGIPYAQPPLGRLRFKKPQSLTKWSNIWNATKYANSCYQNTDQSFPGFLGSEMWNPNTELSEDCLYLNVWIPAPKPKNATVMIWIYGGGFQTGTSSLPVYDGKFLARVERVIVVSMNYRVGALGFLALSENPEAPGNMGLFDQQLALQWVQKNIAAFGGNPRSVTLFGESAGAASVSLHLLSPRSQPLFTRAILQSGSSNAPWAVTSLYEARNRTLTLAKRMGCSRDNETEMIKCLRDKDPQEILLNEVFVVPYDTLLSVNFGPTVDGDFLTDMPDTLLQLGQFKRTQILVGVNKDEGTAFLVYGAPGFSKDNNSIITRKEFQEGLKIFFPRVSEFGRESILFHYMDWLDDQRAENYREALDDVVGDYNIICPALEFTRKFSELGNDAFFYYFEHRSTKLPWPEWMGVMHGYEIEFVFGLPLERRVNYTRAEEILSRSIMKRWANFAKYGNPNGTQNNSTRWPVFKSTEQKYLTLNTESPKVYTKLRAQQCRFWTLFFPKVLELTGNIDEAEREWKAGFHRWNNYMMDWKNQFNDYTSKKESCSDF

Usually IC50 stands for the concentration that inhibits the measured activity by half. Consider `COc1ccc2c(c1)OC(=O)C2c1ccc(OC)c(OC)c1` (stereo not drawn) [Compound 9, 6-Methoxy-3–(3′,4′-dimethoxyphenyl)-benzofuranone], for which the IC50 on BChE from equine serum is over 200 µM; on AChE from electric eel (setting [2]) it was 0.35 ± 0.03 µM; at MAO-B it was 354 ± 5.05 µM; in assay [1], 17.2 ± 0.58 µM.

`COc1ccc(C2C(=O)Oc3cc(OC)c(OC)cc32)cc1` (stereo not drawn) [Compound 10, 5,6-Dimethoxy-3–(4′-methoxyphenyl)-benzofuranone]: the IC50 on BChE from equine serum (setting [3]) is over 200 µM; at AChE from electric eel (setting [4]) it was 28.7 ± 1.44 µM; on MAO-B (setting [5]), 493 ± 7.1 µM; in assay [1], 13.89 ± 0.11 µM.

Consider `COc1ccc2c(c1O)OC(=O)C2c1cc(OC)c(OC)c(OC)c1` (stereo not drawn) [Compound 22, 6-Methoxy-7-hydroxy-3–(3′,4′,5′-trimethoxyphenyl)-benzofuranone], for which the IC50 was over 200 µM at BChE from equine serum (setting [3]), 2.03 ± 0.09 µM on AChE from electric eel (setting [4]), 30.3 ± 0.65 µM at MAO-B (setting [5]) and 6.44 ± 0.12 µM in assay [1].

With `COc1ccc(C2C(=O)Oc3cc(OC)c(O)cc32)cc1` (stereo not drawn) [Compound 7, 5-Hydroxy-6-methoxy-3–(4′-methoxyphenyl)-benzofuranone], the IC50 on BChE from equine serum (setting [3]) was 32.9 ± 0.76 µM; at AChE from electric eel (setting [4]) it was < 1 µM and 0.52 µM; on MAO-B (setting [5]), 91.13 ± 0.7 µM; in assay [1], 2.62 ± 0.21 µM.

As to `COc1ccc(C2C(=O)Oc3cc(O)ccc32)cc1` (stereo not drawn) [Compound 1, 6-Hydroxyl-3–(4′-methoxyphenyl)-benzofuranone], the IC50 is over 200 µM at BChE from equine serum (setting [3]), 50.6 ± 3.12 µM on AChE from electric eel (setting [4]), 61.3 ± 0.79 µM on MAO-B (setting [5]) and 13.3 ± 0.27 µM in assay [1].

With `COc1ccc2c(c1)OC(=O)C2c1ccc(OC)c(OC)c1OC` (stereo not drawn) [Compound 18, 6-Methoxy-3–(2′,3′,4′-trimethoxyphenyl)-benzofuranone], the IC50 at BChE from equine serum (setting [3]) is over 200 µM; on AChE from electric eel (setting [4]), 124 ± 2.17 µM; on MAO-B (setting [5]), 180.3 ± 1.32 µM; in assay [1], 64.5 ± 1.29 µM.

As to `COc1ccc(C2C(=O)Oc3c2ccc(O)c3O)cc1` (stereo not drawn) [Compound 5, 6,7-Dihydroxy-3–(4′-methoxyphenyl)-benzofuranone], the figures for the IC50 (at BChE from equine serum (setting [3]); at MAO-B (setting [5]); in assay [1]) were over 200 µM, 22.48 ± 0.22 µM and 5.51 ± 0.2 µM, respectively.

Regarding `COc1ccc(C2C(=O)Oc3ccc(OC)cc32)cc1` (stereo not drawn) [Compound 4, 5-Methoxy-3–(4′-methoxyphenyl)-benzofuranone], the IC50 on BChE from equine serum (setting [3]) was over 200 µM; on AChE from electric eel (setting [4]), < 1 µM and 0.74 µM; at MAO-B (setting [5]), 383 ± 5.08 µM; in assay [1], 33.1 ± 1.45 µM.

In the case of `COc1ccc(C2C(=O)Oc3cc(O)ccc32)cc1OC` (stereo not drawn) [Compound 6, 6-Hydroxy-3–(3′,4′-dimethoxyphenyl)-benzofuranone], the IC50 at BChE from equine serum (setting [3]) is over 200 µM; at AChE from electric eel (setting [4]), 24.4 ± 1.21 µM; on MAO-B (setting [5]), 48.6 ± 2.02 µM.

On to `O=C1O[C@H]([C@@H](O)CO)C(O)=C1O` [Ascorbic acid, reference compound], for which the IC50 in assay [1] was 7.69 ± 0.1 µM.

Consider `COc1cc(C2C(=O)Oc3c2ccc(O)c3O)cc(OC)c1OC` (stereo not drawn) [Compound 20, 6,7-Dihydroxy−3–(3′,4′,5′-trimethoxyphenyl)-benzofuranone], for which the IC50 is over 200 µM at BChE from equine serum (setting [3]), 0.089 ± 0.01 µM at AChE from electric eel (setting [4]), 149 ± 3.39 µM on MAO-B (setting [5]) and 42.6 ± 2.58 µM in assay [1].

Turning to `COc1ccc(C2C(=O)Oc3ccc(O)cc32)cc1` (stereo not drawn) [Compound 2, 5-Hydroxyl-3–(4′-methoxyphenyl)-benzofuranone], the IC50 is 4.15 ± 1.02 µM at AChE from electric eel (setting [4]), 14.7 ± 0.78 µM on MAO-B (setting [5]) and over 100 µM in assay [1].

Take `COc1cc(C2C(=O)Oc3ccc(O)cc32)cc(OC)c1OC` (stereo not drawn) [Compound 14, 5-Hydroxy-3–(3′,4′,5′-trimethoxyphenyl)-benzofuranone]: the IC50 was determined as 128 ± 4.65 µM on BChE from equine serum (setting [3]), 3.37 ± 0.17 µM on AChE from electric eel (setting [4]), 69.7 ± 1.26 µM on MAO-B (setting [5]) and 5.11 ± 0.13 µM in assay [1].

Consider `COc1cc2c(cc1O)C(c1cc(OC)c(OC)c(OC)c1)C(=O)O2` (stereo not drawn) [Compound 23, 5-Hydroxy-6-methoxy-3–(3′,4′,5′-trimethoxyphenyl)-benzofuranone], for which the IC50 at BChE from equine serum (setting [3]) is over 200 µM; at AChE from electric eel (setting [4]), 26 ± 1.26 µM; on MAO-B (setting [5]), 43.9 ± 1.26 µM; in assay [1], 11.9 ± 0.16 µM.

With `COc1ccc2c(c1)OC(=O)C2c1cc(OC)c(OC)c(OC)c1` (stereo not drawn) [Compound 16, 6-Methoxy-3–(3′,4′,5′-trimethoxyphenyl)-benzofuranone], the IC50 was over 200 µM on BChE from equine serum (setting [3]), 4.07 ± 0.19 µM at AChE from electric eel (setting [4]), over 500 µM on MAO-B (setting [5]) and 18 ± 0.48 µM in assay [1].

Regarding `COc1ccc(C2C(=O)Oc3cc(OC)ccc32)cc1` (stereo not drawn) [Compound 3, 6-Methoxy-3–(4′-methoxyphenyl)-benzofuranone], the IC50 on BChE from equine serum (setting [3]) was over 200 µM; on AChE from electric eel (setting [4]), 80.5 ± 3.41 µM; on MAO-B (setting [5]), 298 ± 5.4 µM; in assay [1], 11.8 ± 0.18 µM.

For the compound `COc1ccc2c(c1)C(c1ccc(OC)c(OC)c1OC)C(=O)O2` (stereo not drawn) [Compound 17, 5-Methoxy-3–(2′,3′,4′-trimethoxyphenyl)-benzofuranone], the IC50 at BChE from equine serum (setting [3]) was over 200 µM; at AChE from electric eel (setting [4]), 42.3 ± 4.01 µM; at MAO-B (setting [5]) it was 82.7 ± 1.31 µM; in assay [1], 29.2 ± 0.31 µM.

In the case of `COc1cc(C2C(=O)Oc3cc(O)ccc32)cc(OC)c1OC` (stereo not drawn) [Compound 11, 6-Hydroxy-3–(3′,4′,5′-trimethoxyphenyl)-benzofuranone], the IC50 on BChE from equine serum (setting [3]) was over 200 µM; on AChE from electric eel (setting [4]) it was 48.24 ± 0.34 µM; at MAO-B (setting [5]), 38.6 ± 0.42 µM; in assay [1], 11.2 ± 0.24 µM.

In the case of `COc1ccc(C2C(=O)Oc3c2ccc(OC)c3O)cc1OC` (stereo not drawn) [Compound 12, 6-Methoxy-7-hydroxy-3–(3′,4′-dimethoxyphenyl)-benzofuranone], the IC50 was 180.9 ± 1.48 µM on BChE from equine serum (setting [3]), 5.25 ± 0.44 µM at AChE from electric eel (setting [4]), 22.9 ± 0.73 µM at MAO-B (setting [5]) and 1.6 ± 0.1 µM in assay [1].

For `COc1ccc(C2C(=O)Oc3cc(OC)c(OC)cc32)cc1OC` (stereo not drawn) [Compound 19, 5,6-Dimethoxy-3–(3′,4′-dimethoxyphenyl)-benzofuranone], the IC50 is over 200 µM at BChE from equine serum, 36.5 ± 0.51 µM against AChE from electric eel (setting [2]), 146 ± 1.83 µM at MAO-B and 12.6 ± 0.14 µM in assay [1].

In the case of `COc1cc2c(cc1O)C(c1cc(OC)c(OC)c(OC)c1)C(=O)O2` (stereo not drawn) [Compound 21, 5-Hydroxy-6-methoxy-3–(3′,4′,5′-trimethoxyphenyl)-benzofuranone], the IC50 was 146 ± 3.05 µM at BChE from equine serum (setting [3]), 2.38 ± 0.2 µM on AChE from electric eel (setting [4]), over 500 µM on MAO-B (setting [5]) and 5.35 ± 0.33 µM in assay [1].
